Measurements as given in patent US20230099969A1, “TWO-PHOTON FLUORESCENT PROBE COMPOUND SELECTIVE FOR AMYLOID BETA PLAQUES AND METHOD FOR IMAGING AMYLOID BETA PLAQUES USING SAME” (Korea University Research and Business Foundation, priority 2020, published 2023).
Values after ≈ are worked out from the molar mass of the structure shown. Values belong to the compound of their own block, whether it stands above or below them.

Experiments:
[1] = Solubility of IRI-1 in PBS (absorbance at 405 nm); type: physicochemical; settings: aqueous buffer, kinetic from dmso stock, PBS containing 2% DMSO, read-out: concentration up to which the dye exists as a monomer in PBS, above which soluble aggregates form
Method: The absorbance of IRI-1 at different concentrations in the 0-50 μM range was recorded at 405 nm in a PBS solution containing 2% DMSO. Deviation from linearity indicates the formation of aggregates.

[2] = biological target: T1, bovine serum albumin (BSA) (Bos taurus, UniProt P02769); assay: Fluorescence in the presence of BSA; settings: BSA 20 μM, PBS pH 7.4, 2% DMF
T1 construct: purchased
Method: (§1) To measure spectra in the presence of analytes, stock solutions of ThT and IRI-1 were prepared in DMF and added to solutions of the analytes in PBS to finally obtain a solution containing 2% DMF. All emission spectra were obtained after 2 min stirring at 37° C. The excitation and emission slit widths were 3/5.

[3] = biological target: T2, Aβ plaques (Homo sapiens, UniProt P05067); assay: In vivo two-photon microscopy imaging; design: species or system 5xFAD-Tg mice; depth up to which individual Aβ plaques could be detected: unit not given here
T2 construct: from tissue; host or cells: brain of 5xFAD-Tg mice: ex vivo slices at 11 months, in vivo frontal cortex at 10-12 months
Method: All animal studies and maintenance were approved by the Institutional Animal Care and Use Committee (IACUC) of Seoul National University, Korea. 10-12-month-old 5xFAD (Tg6799; Jackson Lab Stock No. 006554) AD model mice were anesthetized with the mixture of Tiletamine-Zolazepam (Virbac, France) and Xylazine (Bayer Korea, Korea) via intramuscular (IM) injection (1.2 mg kg^−1) and then fixed on a customized stereotactic heating plate (37° C., Live cell instrument, Seoul, Korea). The mouse scalp was sterilized with Povidone Iodine (Firson, Korea) and then removed. A drop of Epinephrine was applied to the incision site to relieve local pain and bleeding. The periosteum was also removed in this step. When the scalp and periosteum were clearly removed and the skull dried, a small hole (3 mm diameter) was carefully made in the parietal bone with a microdrill. A 5 mm round coverslip was attached to the surgery site with Loctite 454 and dental acrylate was applied around the site. A solution of IRI-1 in 25% DMSO/PBS (5 mg kg^−1) was injected intraperitoneally (i.p.) before TPM imaging. TPM live imaging was conducted using an LSM 7 MP two-photon laser-scanning microscope (Carl Zeiss Microscopy GmbH, Germany) equipped with a Chameleon-Ultra-II laser system (Coherent, USA). An appropriately tuned laser (780-920 nm wavelength, 30 mW intensity) was applied to the imaging site transiently. Emission signals were obtained through the red channel (555-610 nm), or blue channel (485-490 nm) NDD filter set. TPM images were processed and 3D reconstructed using Volocity Software (Perkin-Elmer, Waltham, Mass., USA).

[4] = biological target: T3, human serum albumin (HSA) (Homo sapiens, UniProt P02768); assay: Fluorescence in the presence of HSA; settings: HSA 20 μM, PBS pH 7.4, 2% DMF
T3 construct: purchased
Method: as §1

[5] = pH-dependent absorbance, pKa fitting; type: physicochemical; settings: PBS (10 mM) with pH adjustment; absorbance at 405 nm, pH 2-10, PBS 10 mM
Method: The absorbance of IRI-1 (10 μM) was recorded in PBS (10 mM), with pH adjustment, to maintain a constant salt concentration.

[6] = tested on: SH-SYSY cells; assay: Cell viability MTT assay; type: cell-based, human; settings: concentrations up to 50 μM, 24 h
Method: Cell viability was assessed by the MTT (3-4,5-dimethylthiazol-2-yl)-2,5-diphenyltetrazolium bromide) assay. SH-SYSY cells (1×10^4 per well) were treated with various concentrations of IRI-1 in a 96-well plate for 24 h at 37° C.

[7] = Photostability in DMF; type: physicochemical; settings: solution in DMF, halogen lamp irradiation 35 min
Method: A solution of IRI-1 with an absorbance of 1.0 at the maximum absorbance wavelength was prepared in DMF. A 3100 K halogen lamp (Olympus LG-PS2; 12 V, 100 W) was used for irradiation and the absorbance was recorded at 5 min intervals for 35 min.

[8] = Fluorescence in mouse brain homogenates
Method: as §1
Male ICR mice (10-weeks-old) from Daehan Biolink Co. Ltd. (Eumseong, Korea) were used in this experiment. The mice were accommodated at a constant temperature (23±1° C.), humidity (60±10%), and a 12 h light/dark cycle with free access to water and food. The mice were handled in accordance with the Principle of Laboratory Animal Care (NIH Publication No. 80-23; revised 1978) and the Animal Care and Use Guidelines of KyungHee University, Seoul, Korea (approval number: KHUASP(SE)-18-130). Mice were anesthetized with tribromoethanol (20 μL/g of body weight, Sigma Aldrich, USA) and then, the whole brain was removed quickly. After the washing with 0.1 M PBS, the brain tissue was excised by scissors and homogenized with a pellet pestles cordless motor (Sigma Aldrich, USA) in 2 mL of 0.1 M PBS (pH 7.4). The mixture was centrifuged at 1,000 g (Smart R17 Plus centrifuge, Hanil Scientific, Korea) for 15 min at 4° C. and the supernatant was collected. The pooled brain homogenates of 3 mice were collected and diluted to a final volume of 6 mL with PBS and used for fluorescence studies.

[9] = Fluorescence response to potential interferents; settings: metal ions, amino acids, thiols 20 μM in PBS, λem 566 nm
Method: as §1

[10] = biological target: T4, Aβ fibrils (Homo sapiens, UniProt P05067); assay: Fluorescence response in the presence of Aβ fibrils; settings: Aβ fibrils 20 μM versus PBS containing 2% DMF
T4 construct: lyophilized Aβ1-42 peptides were dissolved in 100% HFIP; purchased GenicBio Limited (Shanghai, China)
Method: as §1
(§2) Aβ1-42 protein was prepared following a literature procedure (J. Hatai, L. Motiei, D. Margulies, J. Am. Chem. Soc. 2017, 139, 2136-2139). Briefly, lyophilized Aβ1-42 peptides were dissolved in 100% HFIP (1,1,1,3,3,3-hexafluoro-2-isopropanol) at a concentration of 2 mg mL^−1 and incubated at 25° C. for 2 h. After incubation, solution was removed under a gentle flow of argon. The peptide was dried using a lyophilizer for 40 h. AO (1 mg) was resuspended in aqueous NaOH (0.5 mL, 2 mM) and sonicated at 0° C. for 10 min. HFIP/NaOH-treated AO samples were diluted to 200 μM with PBS (0.6 mL, […], pH=7.4) and agitated using a shaker (Biofree) for 30 h. The solution was diluted to 20 μM with PBS (9.9 mL, 20 mM, pH=7.4), prior to each experiment.

[11] = biological target: T5, Aβ fibrils (Aβ1-42) (Homo sapiens, UniProt P05067); assay: Aβ1-42 saturation titration (fluorescence at 566 nm); type: binding
T5 construct: lyophilized Aβ1-42 peptides were dissolved in 100% HFIP; purchased GenicBio Limited (Shanghai, China)
Method: as §2
Both Aβ1-42 and IRI-1 are virtually non-fluorescent, and a simplified formula can be used where the fluorescence intensity is directly proportional to the concentration of the (Aβ1-42-IRI-1) complex only:
With F: a fluorescence proportionality factor, [IRI1]: the initial concentration of IRI-1, [Aβ]: the initial concentration of Aβ1-42, N: the number of equivalent binding sites on the Aβ fibril relative to Aβ monomer, and Kd: the dissociation constant.
The results in FIG. 1D were obtained following a multi-parameter optimization of the experimental results following the fluorescence intensity at 566 nm, using a concentration of 10 μM Aβ1-42 and incremental concentrations of IRI-1 in PBS containing 2% DMF. The slit width was set at 3/3. The best fittings were obtained for N=¼, i.e. one binding site per 4 Aβ1-42, consistent with the hypothesized high affinity cross-β-sheet binding site on the protein fibril.

[12] = in vitro; settings: PAMPA
Method: (§3) The BBB-PAMPA was conducted following the manufacturer's instructions (pION, Inc, MA, USA). […] The transmembrane side to the donor part was coated with BBB-lipid solution and 200 μL acceptor buffer was added in the upper chambers of the PAMPA sandwich plate. After incubation for 4 h at 25° C., all samples were transferred to a new U.V plate and then the U.V spectra were measured at a wavelength from 250 nm to 498 nm with a multifunctional microplate reader (Tecan, Infinite M200 Pro, San Jose, Calif., USA) and the permeability rate (Pe, 10^−6 cm/s) was determined using pION PAMPA Explorer software (ver3.8).

[13] = biological target: T2, Aβ plaques; assay: Ex vivo two-photon microscopy imaging of brain slices; design: species or system 5xFAD-Tg mice; settings: 20 μM, 2 h incubation, n=15
Method: Brain tissues were isolated from 11-month-old 5xFAD-Tg mice. All animal protocols were approved by the Institutional Animal Care and Use Committee (IACUC) of KyungHee University, Korea (Approval number: KHUSAP (SE)-18-123). The isolated brain was immediately frozen with dry ice and horizontally sectioned by using a surgical blade (No. 10, […] safety razor Co., LTD, Japan). Sectioned brain tissues were immersed in a DMEM-buffered solution containing IBC 2 or IRI-1 (20 μM), and then incubated at 37° C. for different durations (0.5 h, 1 h and 2 h). After incubation, the brain tissues were washed with PBS (×3) and fixed in 4% paraformaldehyde solution until TPM imaging, using upright microscopy (Leica, Nussloch, Germany). […] TPM images were obtained by collecting the fluorescence from an emission channel of 580-779 nm. To compare the plaque and background signal of IBC 2 and IRI-1, TPM images analyzed by using Leica software. 15 Aβ-plaque regions as well as 15 background regions were randomly chosen for each dye at each incubation time. Bootstrap resampling (n=100,000) was performed on the 15 Aβ and background samples to estimate the population distribution of the signal to background ratios for each of the dyes at the different incubation times as well as to estimate the significance level of the difference of these population distributions.

[14] = BBB-penetrability PAMPA assay
Method: as §3

[15] = pH 7.4, Permeability classification

T5 sequence (P05067 672-713 limits assumed): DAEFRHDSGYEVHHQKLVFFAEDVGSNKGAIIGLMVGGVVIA
T2 sequence (P05067 672-713 limits assumed): as above
T4 sequence (P05067 672-713 limits assumed): as above
T1 sequence (P02769 25-607): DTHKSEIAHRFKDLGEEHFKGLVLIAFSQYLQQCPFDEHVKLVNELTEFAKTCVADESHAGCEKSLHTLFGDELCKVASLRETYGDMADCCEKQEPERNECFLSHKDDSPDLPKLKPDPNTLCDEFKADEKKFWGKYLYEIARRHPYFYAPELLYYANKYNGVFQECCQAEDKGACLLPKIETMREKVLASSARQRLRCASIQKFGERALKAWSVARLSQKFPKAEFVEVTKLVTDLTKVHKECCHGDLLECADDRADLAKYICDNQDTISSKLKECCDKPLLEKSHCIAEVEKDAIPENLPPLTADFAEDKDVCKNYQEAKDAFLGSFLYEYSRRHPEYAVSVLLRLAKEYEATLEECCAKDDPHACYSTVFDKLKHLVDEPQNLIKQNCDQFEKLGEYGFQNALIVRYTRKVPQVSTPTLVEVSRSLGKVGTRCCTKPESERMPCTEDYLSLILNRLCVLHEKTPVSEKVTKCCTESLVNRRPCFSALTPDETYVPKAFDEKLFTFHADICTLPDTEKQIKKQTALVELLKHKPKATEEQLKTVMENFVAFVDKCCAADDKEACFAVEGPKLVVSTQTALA
T3 sequence (P02768 25-609): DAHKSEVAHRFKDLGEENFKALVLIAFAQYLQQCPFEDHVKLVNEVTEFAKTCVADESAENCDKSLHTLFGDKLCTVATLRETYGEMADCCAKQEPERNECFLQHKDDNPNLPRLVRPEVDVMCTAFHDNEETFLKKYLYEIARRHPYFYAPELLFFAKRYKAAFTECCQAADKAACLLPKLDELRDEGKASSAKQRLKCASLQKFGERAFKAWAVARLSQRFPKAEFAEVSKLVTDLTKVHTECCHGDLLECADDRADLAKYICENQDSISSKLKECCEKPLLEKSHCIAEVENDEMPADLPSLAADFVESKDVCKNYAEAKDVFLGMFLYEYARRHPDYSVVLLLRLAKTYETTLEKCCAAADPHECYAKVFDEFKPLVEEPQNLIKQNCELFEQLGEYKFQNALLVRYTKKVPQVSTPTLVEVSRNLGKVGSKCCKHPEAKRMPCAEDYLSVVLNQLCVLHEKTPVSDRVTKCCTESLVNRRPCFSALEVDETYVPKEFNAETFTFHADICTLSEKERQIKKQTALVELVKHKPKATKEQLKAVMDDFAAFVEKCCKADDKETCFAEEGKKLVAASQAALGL

- solubility [1]: 4.7 µM (≈ 1.36 µg/mL)
- BBB penetration ([3]; 5 mg kg^−1 i.p.): good BBB penetration
- time to full saturation of fluorescence enhancement of Aβ plaques in the frontal cortex ([3]; 5 mg kg^−1 i.p., excitation 920 nm): approximately 40 min
- depth up to which individual Aβ plaques could be detected ([3]; 3D two-photon imaging, 5 mg kg^−1 i.p.): ≤ 172
- overlap of images with co-administered MeO-X04 ([3]; co-administration, frontal cortex): near perfect overlap
- pKa [5]: 4.22 ± 0.12
- fluorescence enhancement in the presence of Aβ fibrils [10]: 167 fold
- Kd ([11]; Aβ fibrils 10 μM, IRI-1 0-50 μM, PBS containing 2% DMF, nonlinear fitting, read-out: binding affinity toward Aβ fibrils, Kd): 374 ± 115 nM
- N, number of equivalent binding sites on the Aβ fibril relative to Aβ monomer ([11]; best fitting, one binding site per 4 Aβ1-42): ¼
- binding affinity relative to that previously reported for ThT ([11]; versus literature value for ThT): two- to three-folds stronger
- Papp at 4 h ([12]; pH 7.4, Pe): 0.562 ± 0.053 ×10⁻⁶ cm/s
- Papp at 4 h [12, 15]: > 0.4 ×10⁻⁶ cm/s
- signal-to-background ratio, elevation compared to IBC-2 [13]: approximately 3.75 fold
Compound: CN(C)c1ccc(-c2ccc3cc(C#N)c(=N)oc3c2)cc1 [IRI-1]
- fluorescence enhancement in the presence of BSA [2]: only relatively weak fluorescence enhancement
- fluorescence enhancement in the presence of HSA [4]: only relatively weak fluorescence enhancement
- cytotoxicity [6]: no significant toxicity
- resistance to photobleaching [7]: relatively high resistance to photobleaching
- fluorescence enhancement in the presence of mouse brain homogenates [8]: only relatively weak fluorescence enhancement
- fluorescent response to potential interferants [9]: no or negligible fluorescence enhancement

- Papp at 4 h ([12]; pH 7.4, Pe): 39.5 ± 5.59 ×10⁻⁶ cm/s
- Papp at 4 h [12, 15]: > 0.4 ×10⁻⁶ cm/s
Compound: CC(=O)[C@H]1CC[C@H]2[C@@H]3CCC4=CC(=O)CC[C@]4(C)[C@H]3CC[C@]12C [Progesterone, reference compound]

- Permeability classification [14]: Not permeable
- Pe ([14]; pH 7.4, 4 h at 25° C., mean and standard deviation, n = 3): 0^c 10^−6 cm/s
- fluorescence enhancement in the presence of Aβ fibrils [10]: 20 fold
Compound: Cc1ccc2c(c1)sc(-c1ccc(N(C)C)cc1)[n+]2C.[Cl-] [Thioflavin T]
